# Assay results from patent US8623859B2, “Bradykinin B1 antagonists” (Evotec AG, priority 2008, dated 2014).
# Structures can show the parent of a compound that is named as a salt.
# Biological target: T1, human B1 (Homo sapiens, UniProt P46663)
# T1 construct: host or cells: CHO-K1
# T1 sequence (P46663 1-353): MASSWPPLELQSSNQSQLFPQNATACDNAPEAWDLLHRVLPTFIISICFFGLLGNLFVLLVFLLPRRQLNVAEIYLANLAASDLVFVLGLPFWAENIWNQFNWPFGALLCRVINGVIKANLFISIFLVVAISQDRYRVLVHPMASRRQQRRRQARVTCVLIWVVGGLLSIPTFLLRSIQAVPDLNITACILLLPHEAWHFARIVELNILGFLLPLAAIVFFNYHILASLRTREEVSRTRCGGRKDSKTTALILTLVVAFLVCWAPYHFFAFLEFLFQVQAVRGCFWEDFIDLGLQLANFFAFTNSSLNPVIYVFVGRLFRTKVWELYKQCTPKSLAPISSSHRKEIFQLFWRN
# Assay: Calcium flux assay for Bradykinin B1 antagonist, CHO-K1 cell line expressing human B1
# Format: cell-based
# Settings: CHO-K1 cells expressing human B1, agonist Lys-(Des-Arg)-Bradykinin, read-out: Potency (IC50 value against human B1)
# In short: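 CHO-K1 cells expressing human B1, loaded with 5 μM Fluo-4AM (2 h, 37° C) in HEPES buffer pH 7.4 with probenecid and 0.1% BSA, were preincubated 30 min at 25° C with compound (8 concentrations, triplicate, 1% DMSO) before B1 agonist addition. Ca2+ fluorescence monitored at 538 nm; background-normalized integrated values plotted against log antagonist concentration.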
row,SMILES,IC50
1,"COc1cc(C)c(S(=O)(=O)N(C)Cc2nc(C(=O)N3CCN(C4CCN(C)CC4)CC3)co2)c(C)c1 [Ex 66, 4-Methoxy-N,2,6-trimethyl-N-[(4-{[4-(1-methylpiperidin-4-yl)piperazin-1-yl]carbonyl}-1,3-oxazol-2-yl)methyl]benzenesulfonamide]",10 to 100 nM
2,"COc1cc(C)c(S(=O)(=O)N(C)Cc2nc(C(=O)NCc3ccc(C4=NCCN4)cc3)co2)c(C)c1 [Ex 68, N-[4-(4,5-dihydro-1H-imidazol-2-yl)benzyl]-2-({[(4-methoxy-2,6-dimethylphenyl)sulfonyl](methyl)amino}methyl)-1,3-oxazole-4-carboxamide]",100 to 1000 nM
3,"COc1cc(C)c(S(=O)(=O)N(C)Cc2nc(C(=O)NCc3ccc(CN4CCCC4)cc3)co2)c(C)c1 [Ex 72, 2-({[(4-Methoxy-2,6dimethylphenyl)sulfonyl](methyl)amino}methyl)-N-[4-(pyrrolidin-1-ylmethyl)benzyl]-1,3-oxazole-4-carboxamide]",10 to 100 nM
4,"COc1cc(C)c(S(=O)(=O)N(C)Cc2nc(C(=O)N(C)CCc3ccc(C4=NCCN4)cc3)cs2)c(C)c1 [Ex 80, N-{2-[4-(4,5-dihydro-1H-imidazol-2-yl)phenyl]ethyl}-2-({[(4-methoxy-2,6-dimethylphenyl)sulfonyl](methyl)amino}methyl)-N-methyl-1,3-thiazole-4-carboxamide]",100 to 1000 nM
5,"COc1cc(C)c(S(=O)(=O)N(C)Cc2nc(C(=O)N(C)Cc3ccc(C4=NCCN4)cc3)cs2)c(C)c1 [Ex 81, N-[4-(4,5-dihydro-1H-imidazol-2-yl)benzyl]-2-({[(4-methoxy-2,6-dimethylphenyl)sulfonyl](methyl)amino}methyl)-N-methyl-1,3-thiazole-4-carboxamide]",100 to 1000 nM
6,"COc1cc(C)c(S(=O)(=O)N(Cc2cc(C(=O)NCc3ccc(C4=NCCN4)cc3)co2)C2CC2)c(C)c1 [Ex 82, 5-({cyclopropyl[(4-methoxy-2,6-dimethylphenyl)sulfonyl]amino}methyl)-N-[4-(4,5-dihydro-1H-imidazol-2-yl)benzyl]furan-3-carboxamide trifluoroacetate]",100 to 1000 nM
7,"COc1cc(C)c(S(=O)(=O)N(Cc2cc(C(=O)N(C)Cc3ccc(C4=NCCN4)cc3)co2)C2CC2)c(C)c1 [Ex 83, 5-({cyclopropyl[(4-methoxy-2,6-dimethylphenyl)sulfonyl]amino}methyl)-N-[4-(4,5-dihydro-1H-imidazol-2-yl)benzyl]-N-methylfuran-3-carboxamide trifluoroacetate]",10 to 100 nM
8,"COc1cc(C)c(S(=O)(=O)N(Cc2cc(C(=O)N(C)CCc3ccc(C4=NCCN4)cc3)co2)C2CC2)c(C)c1 [Ex 84, 5-({cyclopropyl[(4-methoxy-2,6-dimethylphenyl)sulfonyl]amino}methyl)-N-{2-[4-(4,5-dihydro-1H-imidazol-2-yl)phenyl]ethyl}-N-methylfuran-3-carboxamide trifluoroacetate]",< 10 nM
9,"COc1cc(C)c(S(=O)(=O)N(C)C(C)c2cc(C(=O)NCCc3ccc(C4=NCCN4)cc3)co2)c(C)c1 (centres unmarked) [Ex 85, N-{2-[4-(4,5-dihydro-1H-imidazol-2-yl)phenyl]ethyl}-5-(1-{[(4-methoxy-2,6-dimethylphenyl)sulfonyl](methyl)amino}ethyl)furan-3-carboxamide trifluoroacetamide]",100 to 1000 nM
10,"COc1cc(C)c(S(=O)(=O)N(C)Cc2cc(C(=O)NCCc3ccc(C4=NCCN4)cc3)co2)c(CO)c1 [Ex 86, N-{2-[4-(4,5-Dihydro-1H-imidazol-2-yl)phenyl]ethyl}-5-{[{[2-(hydroxymethyl)-4-methoxy-6-methylphenyl]sulfonyl}(methyl)amino]methyl}furan-3-carboxamide trifluoroacetate]",100 to 1000 nM
11,"Cc1cc(O)cc(C)c1S(=O)(=O)N(C)Cc1cc(C(=O)N(C)CCc2ccc(C3=NCCN3)cc2)co1 [Ex 87, N-{2-[4-(4,5-Dihydro-1H-imidazol-2-yl)phenyl]ethyl}-5-({[(4-hydroxy-2,6-dimethylphenyl)sulfonyl](methyl)amino}methyl)-N-methylfuran-3-carboxamide, trifluoroacetate]",10 to 100 nM
12,"COc1cc(C)c(S(=O)(=O)N(C)Cc2cc(C(=O)N(C)Cc3ccc(C(C)N4CCCC4)cc3)co2)c(C)c1 (centres unmarked) [Ex 88, 5-({[(4-Methoxy-2,6-dimethylphenyl)sulfonyl](methyl)amino}methyl)-N-methyl-N-[4-(1-pyrrolidin-1-ylethyl)benzyl]furan-3-carboxamide trifluoroacetate]",100 to 1000 nM
13,"COc1cc(C)c(S(=O)(=O)N(Cc2cc(C(=O)N3CCN(CC4CCN(C)CC4)CC3)co2)C2CC2)c(C)c1 [Ex 89, N-Cyclopropyl-4-methoxy-2,6-dimethyl-N-{[4-({4-[(1-methylpiperidin-4-yl)methyl]piperazin-1-yl}carbonyl)furan-2-yl]methyl}benzenesulfonamide]",< 10 nM
14,"COc1cc(C)c(S(=O)(=O)N(C)Cc2cc(C(=O)NC(C)c3ccc(CN4CCCC4)cc3)co2)c(C)c1 (centres unmarked) [Ex 90, 5-({[(4-Methoxy-2,6-dimethylphenyl)sulfonyl](methyl)amino}methyl)-N-{1-[4-(pyrrolidin-1-ylmethyl)phenyl]ethyl}furan-3-carboxamide]",100 to 1000 nM
15,"COc1cc(C)c(S(=O)(=O)N(C)Cc2cc(C(=O)NC(C)c3ccc(CN4CCC(O)C4)cc3)co2)c(C)c1 (centres unmarked) [Ex 91, N-(1-{4-[(3-Hydroxypyrrolidin-1-yl)methyl]phenyl}ethyl)-5-({[(4-methoxy-2,6-dimethylphenyl)sulfonyl](methyl)amino}methyl)furan-3-carboxamide]",100 to 1000 nM

# More lines, now with the values ahead:
row,IC50,SMILES
1,< 10 nM,"COc1cc(C)c(S(=O)(=O)N(C)Cc2nc(C(=O)NCCc3ccc(C4=NCCN4)cc3)co2)c(C)c1 [Ex 67, N-{2-[4-(4,5-dihydro-1H-imidazol-2-yl)phenyl]ethyl}-2-({[(4-methoxy-2,6-dimethylphenyl)sulfonyl](methyl)amino}methyl)-1,3-oxazole-4-carboxamide]"
2,< 10 nM,"COc1cc(C)c(S(=O)(=O)N(C)Cc2nc(C(=O)N(C)CCc3ccc(C4=NCCN4)cc3)co2)c(C)c1 [Ex 69, N-{2-[4-(4,5-dihydro-1H-imidazol-2-yl)phenyl]ethyl}-2-({[(4-methoxy-2,6-dimethylphenyl)sulfonyl](methyl)amino}methyl)-N-methyl-1,3-oxazole-4-carboxamide]"
3,< 10 nM,"COc1cc(C)c(S(=O)(=O)N(C)Cc2nc(C(=O)N(C)Cc3ccc(C4=NCCN4)cc3)co2)c(C)c1 [Ex 70, N-[4-(4,5-dihydro-1H-imidazol-2-yl)benzyl]-2-({[(4-methoxy-2,6-dimethylphenyl)sulfonyl](methyl)amino}methyl)-N-methyl-1,3-oxazole-4-carboxamide]"
4,< 10 nM,"COc1cc(C)c(S(=O)(=O)N(C)Cc2nc(C(=O)N(C)Cc3ccc(CN4CCCC4)cc3)co2)c(C)c1 [Ex 71, 2({[(4-Methoxy-2,6dimethylphenyl)sulfonyl](methyl)amino}methyl)-N-methyl-N-[4-(pyrrolidin-1-ylmethyl)benzyl]-1,3-oxazole-4-carboxamide]"
5,< 10 nM,"COc1cc(C)c(S(=O)(=O)N(C)Cc2nc(C(=O)N(C)Cc3cccc(CN4CCCC4)c3)co2)c(C)c1 [Ex 73, 2-({[(4-Methoxy-2,6-dimethylphenyl)sulfonyl](methyl)amino}methyl)-N-methyl-N-[3-(pyrrolidin-1-ylmethyl)benzyl]-1,3-oxazole-4-carboxamide]"
6,< 10 nM,"COc1cc(C)c(S(=O)(=O)N(C)Cc2nc(C(=O)NCc3cccc(CN4CCCC4)c3)co2)c(C)c1 [Ex 74, 2-({[(4-Methoxy-2,6-dimethylphenyl)sulfonyl](methyl)amino}methyl)-N-[3-(pyrrolidin-1-ylmethyl)benzyl]-1,3-oxazole-4-carboxamide]"
7,< 10 nM,"COc1cc(C)c(S(=O)(=O)N(Cc2nc(C(=O)N(C)Cc3ccc(CN4CCCC4)cc3)co2)C2CC2)c(C)c1 [Ex 75, 2-({Cyclopropyl[(4-methoxy-2,6-dimethylphenyl)sulfonyl]amino}methyl)-N-methyl-N-[4-(pyrrolidin-1-ylmethyl)benzyl]-1,3-oxazole-4-carboxamide]"
8,< 10 nM,"COc1cc(C)c(S(=O)(=O)N(Cc2nc(C(=O)NCc3ccc(CN4CCCC4)cc3)co2)C2CC2)c(C)c1 [Ex 76, 2-({Cyclopropyl[(4-methoxy-2,6-dimethylphenyl)sulfonyl]amino}methyl)-N-[4-(pyrrolidin-1-ylmethyl)benzyl]-1,3-oxazole-4-carboxamide]"
9,< 10 nM,"COc1cc(C)c(S(=O)(=O)N(Cc2nc(C(=O)N(C)Cc3cccc(CN4CCCC4)c3)co2)C2CC2)c(C)c1 [Ex 77, 2-({Cyclopropyl[(4-methoxy-2,6-dimethylphenyl)sulfonyl]amino}methyl)-N-methyl-N-[3-(pyrrolidin-1-ylmethyl)benzyl]-1,3-oxazole-4-carboxamide]"
10,< 10 nM,"COc1cc(C)c(S(=O)(=O)N(Cc2nc(C(=O)NCc3cccc(CN4CCCC4)c3)co2)C2CC2)c(C)c1 [Ex 78, 2-({Cyclopropyl[(4-methoxy-2,6-dimethylphenyl)sulfonyl]amino}methyl)-N-[3-(pyrrolidin-1-ylmethyl)benzyl]-1,3-oxazole-4-carboxamide]"
11,< 10 nM,"COc1cc(C)c(S(=O)(=O)N(Cc2nc(C(=O)N(C)CCc3ccc(C4=NCCN4)cc3)co2)C2CC2)c(C)c1 [Ex 79, 2-({Cyclopropyl[(4-methoxy-2,6-dimethylphenyl)sulfonyl]amino}methyl)-N-{2-[4-(4,5-dihydro-1H-imidazol-2-yl)phenyl]ethyl}-N-methyl-1,3-oxazole-4-carboxamide]"
